Active and inactive are the calls of the source. No cut-off for these calls is given here.
How the values were obtained:
[1] = Growth inhibition of human NCI60 cells assessed as cell growth at 10 uM after 48 hrs by sulforhodamine B assay relative to control; format: functional; settings: NCI60, 48 h, read-out: Activity
MDA-MB-435 [2] = assay: Cytotoxicity against human MDA-MB-435 cells after 48 hrs by sulforhodamine B assay; format: functional; settings: MDA-MB-435, 48 h; for CC50: read-out: LC50 (the source's name)
[3] = Cytotoxicity against human SF539 cells after 48 hrs by sulforhodamine B assay; format: functional; settings: SF-539, 48 h; for CC50: read-out: LC50 (the source's name)
786-0 [4] = assay: Cytotoxicity against human 786-0 cells after 48 hrs by sulforhodamine B assay; format: functional; settings: 786-0, 48 h; for CC50: read-out: LC50 (the source's name)
MDA-MB-468 [5] = assay: Cytotoxicity against human MDA-MB-468 cells after 48 hrs by sulforhodamine B assay; format: functional; settings: MDA-MB-468, 48 h; for CC50: read-out: LC50 (the source's name)
[6] = target: Tyrosyl-DNA phosphodiesterase 1 (Homo sapiens, UniProt Q9NUW8); assay: Inhibition of recombinant human N-terminal His-tagged TDP1 (1824 bp) expressed in Escherichia coli BL21(DE3) cells using 5'-(5,6 FAM-AAC GTC AGG GTC TTC C-BHQ1)-3' as substrate measured every 1 min by RT-PCR method
MDA-MB-435 [7] = assay: Cytotoxicity against human MDA-MB-435 cells assessed as cell death at 100 uM after 48 hrs by sulforhodamine B assay; format: functional, cell-based
SF-539 [8] = assay: Cytotoxicity against human SF539 cells assessed as assessed as cell death at 100 uM after 48 hrs by sulforhodamine B assay; format: functional, cell-based
786-0 [9] = assay: Cytotoxicity against human 786-0 cells assessed as cell death at 100 uM after 48 hrs by sulforhodamine B assay; format: functional, cell-based
MDA-MB-468 [10] = assay: Cytotoxicity against human MDA-MB-468 cells assessed as cell death at 100 uM after 48 hrs by sulforhodamine B assay; format: functional, cell-based
SF-539 [11] = assay: Cytotoxicity against human SF539 cells assessed as growth inhibition at 100 uM after 48 hrs by sulforhodamine B assay; format: functional, cell-based

Tyrosyl-DNA phosphodiesterase 1, sequence (Q9NUW8 whole entry): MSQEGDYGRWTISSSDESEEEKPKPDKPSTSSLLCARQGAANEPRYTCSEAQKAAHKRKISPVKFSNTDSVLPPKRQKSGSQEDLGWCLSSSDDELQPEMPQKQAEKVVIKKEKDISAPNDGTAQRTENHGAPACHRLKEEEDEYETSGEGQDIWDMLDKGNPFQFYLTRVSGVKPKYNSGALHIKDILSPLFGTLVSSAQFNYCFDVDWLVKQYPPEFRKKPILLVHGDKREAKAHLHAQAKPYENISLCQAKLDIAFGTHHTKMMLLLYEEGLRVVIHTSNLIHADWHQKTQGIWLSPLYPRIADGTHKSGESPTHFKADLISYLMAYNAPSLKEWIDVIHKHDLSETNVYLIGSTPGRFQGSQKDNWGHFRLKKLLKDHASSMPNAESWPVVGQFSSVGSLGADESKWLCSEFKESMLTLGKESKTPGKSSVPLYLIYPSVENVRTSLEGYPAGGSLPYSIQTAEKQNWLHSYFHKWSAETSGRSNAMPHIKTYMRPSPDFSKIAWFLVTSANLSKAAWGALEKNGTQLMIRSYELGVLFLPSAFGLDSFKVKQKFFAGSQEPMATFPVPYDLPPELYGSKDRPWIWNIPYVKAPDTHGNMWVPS

Row | Structure (SMILES) | growth at 10 µM [1] [%] | GI50 (MDA-MB-435 [2]) [nM] | GI50 [3] [nM] | GI50 (786-0 [4]) [nM] | GI50 (MDA-MB-468 [5]) [nM] | Activity (786-0 [9]) | Activity (MDA-MB-468 [10]) | also measured
1 | Nc1c(C(=O)Nc2ccccc2)sc2nc3c(cc12)CCC3 | 79.5 | – | – | – | – | – | – | –
2 | Nc1c(C(=O)Nc2cccc(C(F)(F)F)c2)sc2nc3c(cc12)CCCCCC3 | 7 | 2100 | 1710 | 1600 | 798 | – | – | CC50 (MDA-MB-435 [2]): 59200 nM; CC50 [3]: 6650 nM; CC50 (786-0 [4]): 6070 nM; CC50 (MDA-MB-468 [5]): 15400 nM; IC50 [6]: 500 nM
3 | Nc1c(C(=O)Nc2ccccc2)sc2nc3c(cc12)CCCC3 | 30.3 | 172 | 416 | 656 | 303 | inactive | inactive | Activity (MDA-MB-435 [7]): inactive; Activity (SF-539 [8]): inactive
4 | Nc1c(C(=O)Nc2ccccc2Cl)sc2nc3c(cc12)CCCCCC3 | 29 | 275 | 2650 | 1750 | 2250 | – | inactive | CC50 (MDA-MB-435 [2]): 20900 nM; CC50 [3]: 46600 nM; CC50 (786-0 [4]): 6120 nM; IC50 [6]: 1000 nM
5 | Nc1c(C(=O)Nc2cccc(C(F)(F)F)c2)sc2nc3c(cc12)CCCCC3 | 10 | 2530 | 1940 | 1580 | 394 | – | – | CC50 [3]: 11300 nM; CC50 (786-0 [4]): 6240 nM; CC50 (MDA-MB-468 [5]): 31000 nM; Activity (MDA-MB-435 [7]): inactive
6 | Nc1c(C(=O)Nc2ccccc2C(F)(F)F)sc2nc3c(cc12)CCCCCC3 | 80.2 | – | – | – | – | – | – | –
7 | CCC1CCc2nc3sc(C(=O)Nc4ccccc4C)c(N)c3cc2C1 (racemic) | 36.5 | 104 | 398 | 371 | 244 | inactive | inactive | Activity (SF-539 [8]): inactive
8 | Cc1cccc(NC(=O)c2sc3nc4c(cc3c2N)CCCC4)c1 | 39.9 | 305 | 4740 | 4130 | 1750 | inactive | inactive | Activity (MDA-MB-435 [7]): inactive; Activity (SF-539 [8]): inactive
9 | CCC1CCc2nc3sc(C(=O)Nc4cccc(C)c4)c(N)c3cc2C1 (racemic) | 69.7 | – | – | – | – | – | – | –
10 | Nc1c(C(=O)Nc2ccccc2F)sc2nc3c(cc12)CCCC3 | 34.5 | – | – | – | – | – | – | –
11 | Nc1c(C(=O)Nc2ccccc2C(F)(F)F)sc2nc3c(cc12)CCCC3 | 90.6 | – | – | – | – | – | – | –
12 | CCC1CCc2nc3sc(C(=O)Nc4cccc(F)c4)c(N)c3cc2C1 (racemic) | 60.3 | 110 | – | 701 | 471 | inactive | inactive | Activity (MDA-MB-435 [7]): inactive; Activity (SF-539 [8]): inactive; growth inhibition (GI) (SF-539 [11]): inactive
13 | CCC1CCc2nc3sc(C(=O)Nc4ccccc4F)c(N)c3cc2C1 (racemic) | 61.1 | 133 | 10000 | 41700 | 347 | inactive | inactive | Activity (MDA-MB-435 [7]): inactive; Activity (SF-539 [8]): inactive
14 | Nc1c(C(=O)Nc2c(Cl)cccc2Cl)sc2nc3c(cc12)CCCCC3 | 52.1 | – | – | – | – | – | – | –
15 | Nc1c(C(=O)Nc2cccc(C(F)(F)F)c2)sc2nc3c(cc12)C(=O)CC3 | – | – | – | – | – | – | – | IC50 [6]: 1700 nM
16 | Cc1cccc(NC(=O)c2sc3nc4c(cc3c2N)CCC4)c1C | 23.6 | 52 | 241 | 367 | 197 | – | – | CC50 (MDA-MB-435 [2]): 22700 nM; CC50 [3]: 72400 nM; CC50 (786-0 [4]): 14300 nM; CC50 (MDA-MB-468 [5]): 71200 nM
17 | Nc1c(C(=O)Nc2ccccc2Cl)sc2nc3c(cc12)CCCC3 | 99.4 | – | – | – | – | – | – | –
18 | Nc1c(C(=O)Nc2cccc(C(F)(F)F)c2)sc2nc3c(cc12)CCCC3 | 88.1 | – | – | – | – | – | – | –
19 | Nc1c(C(=O)Nc2ccccc2)sc2nc3c(cc12)CCCCCC3 | 12.5 | 52 | 217 | 354 | 291 | – | inactive | CC50 (MDA-MB-435 [2]): 897 nM; CC50 [3]: 3200 nM; CC50 (786-0 [4]): 10200 nM
20 | Nc1c(C(=O)Nc2ccccc2)sc2nc3c(cc12)CCCCC3 | 14.7 | 205 | 307 | 465 | 254 | inactive | inactive | CC50 [3]: 94300 nM; Activity (MDA-MB-435 [7]): inactive
21 | Nc1c(C(=O)Nc2ccccc2C(F)(F)F)sc2nc3c(cc12)CCC3 | – | – | – | – | – | – | – | IC50 [6]: > 15000 nM
22 | COc1cccc(NC(=O)c2sc3nc4c(cc3c2N)CCCC4)c1 | 28.2 | 150 | 368 | 420 | 239 | inactive | inactive | CC50 (MDA-MB-435 [2]): 13500 nM; Activity (SF-539 [8]): inactive
23 | Nc1c(C(=O)Nc2ccccc2F)sc2nc3c(cc12)CCC3 | 102 | – | – | – | – | – | – | –

Reference: ChEMBL document CHEMBL3769377, “A synthesis, in silico, in vitro and in vivo study of thieno[2,3-b]pyridine anticancer analogues” (Medchemcomm, 2015)
